Columns and labels:
Assay in all cases: normalised response (% of control), CellTiter-Glo; higher = more viable cells (100 = DMSO, 0 = benzethonium chloride kill control)
Settings in all cases: incubation time: 72 h
DU-4475 = tested on: DU-4475
Procedure, shortened: (§1)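 Each entry is the normalised signal at a single concentration within a series. The series comprised 5 concentrations in 10-fold steps over a compound-specific 10,000-fold range, placed in 384-well plates into which breast cancer cell lines were seeded as 20 µl suspension and incubated 72 h. CellTox Green (485/520 nm) fluorescence and then CellTiter-Glo luminescence were read, with signals normalised per plate to 0.1 % DMSO (100) and a positive kill control (0).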

Hs578T = tested on: Hs578T
Procedure, shortened: as §1

HCC1599 = tested on: HCC1599
Procedure, shortened: as §1

MCF-10A = tested on: MCF-10A
Procedure, shortened: as §1

HCC1143 = tested on: HCC1143
Procedure, shortened: as §1

HDQ-P1 = tested on: HDQ-P1
Procedure, shortened: as §1

MDA-MB-436 = tested on: MDA-MB-436
Procedure, shortened: as §1

MDA-MB-468 = tested on: MDA-MB-468
Procedure, shortened: as §1

BT-549 = tested on: BT-549
Procedure, shortened: as §1

SK-BR-3 = tested on: SK-BR-3
Procedure, shortened: as §1

CAL-85-1 = tested on: CAL-85-1
Procedure, shortened: as §1

CAL-51 = tested on: CAL-51
Procedure, shortened: as §1

CAL-120 = tested on: CAL-120
Procedure, shortened: as §1

MDA-MB-231 = tested on: MDA-MB-231
Procedure, shortened: as §1

MDA-MB-453 = tested on: MDA-MB-453
Procedure, shortened: as §1

BT-474 = tested on: BT-474
Procedure, shortened: as §1

HCC1937 = tested on: HCC1937
Procedure, shortened: as §1

CAL-148 = tested on: CAL-148
Procedure, shortened: as §1

MFM-223 = tested on: MFM-223
Procedure, shortened: as §1

SMILES | normalised response (DU-4475) [%] | normalised response (Hs578T) [%] | normalised response (HCC1599) [%] | normalised response (MCF-10A) [%] | normalised response (HCC1143) [%] | normalised response (HDQ-P1) [%] | normalised response (MDA-MB-436) [%] | normalised response (MDA-MB-468) [%] | normalised response (BT-549) [%] | normalised response (SK-BR-3) [%] | normalised response (CAL-85-1) [%] | normalised response (CAL-51) [%] | normalised response (CAL-120) [%] | normalised response (MDA-MB-231) [%] | normalised response (MDA-MB-453) [%] | normalised response (BT-474) [%] | normalised response (HCC1937) [%] | normalised response (CAL-148) [%] | normalised response (MFM-223) [%]
Cc1ccc(-c2cc(C(F)(F)F)nn2-c2ccc(S(N)(=O)=O)cc2)cc1 [Celecoxib] (1 nM) | 95.5 | 105 | 93.6 | 98.8 | 96.8 | 97.4 | 95.1 | 102 | 104 | 102 | 104 | 88.1 | 96.8 | 98 | 111 | 96.5 | 95.9 | 102 | 102
O=C(/C=C/c1cccnc1)NCCCCC1CCN(C(=O)c2ccccc2)CC1 [Daporinad] (0.1 nM) | 103 | 96.3 | 108 | 102 | 94 | 98.4 | 101 | 96.9 | 98.4 | 108 | 101 | 112 | 101 | 101 | 102 | 106 | 101 | 101 | 109
O=C(/C=C/c1cccnc1)NCCCCC1CCN(C(=O)c2ccccc2)CC1 [Daporinad] (1 nM) | 105 | 97.1 | 106 | 106 | 106 | 98.1 | 105 | 103 | 98 | 113 | 103 | 114 | 105 | 101 | 88.8 | 106 | 101 | 101 | 87.2
Nc1ncn([C@H]2C[C@H](O)[C@@H](CO)O2)c(=O)n1 [Decitabine] (1 nM) | 102 | 94.3 | 99.7 | 92.4 | 90.8 | 98.2 | 96.5 | 102 | 90 | 96.2 | 99 | 76.5 | 97 | 104 | 110 | 99.1 | 101 | 92.1 | 96.4
Nc1ccccc1NC(=O)c1ccc(CNC(=O)OCc2cccnc2)cc1 [Entinostat] (1 nM) | 99.7 | 98.8 | 95.6 | 98.1 | 103 | 102 | 102 | 106 | 103 | 102 | 106 | 85.2 | 99.2 | 102 | 114 | 92.8 | 99.2 | 98.2 | 97.2
Nc1nc(F)nc2c1ncn2[C@@H]1O[C@H](CO)[C@@H](O)[C@@H]1O [Fludarabine] (1 nM) | 99.8 | 110 | 102 | 113 | 110 | 103 | 120 | 103 | 101 | 111 | 101 | 93.1 | 98.4 | 99.9 | 112 | 111 | 99.3 | 97.2 | 109
CC[C@H](Nc1ncnc2[nH]cnc12)c1nc2cccc(F)c2c(=O)n1-c1ccccc1 [GS-1101] (1 nM) | 100 | 96.8 | 96.3 | 79.2 | 89.9 | 88.3 | 92.5 | 93.4 | 102 | 88 | 95.1 | 101 | 90.1 | 98.5 | 88.3 | 92 | 91.6 | 84.8 | 85.4
CC[C@H](Nc1ncnc2[nH]cnc12)c1nc2cccc(F)c2c(=O)n1-c1ccccc1 [GS-1101] (10 nM) | 100 | 97.4 | 112 | 89.7 | 93.2 | 94.2 | 88.3 | 99.8 | 92.7 | 65 | 95.3 | 122 | 93.2 | 93.2 | 89.1 | 93.7 | 92.3 | 87 | 87.8
C=CC(=O)N1CCC[C@@H](n2nc(-c3ccc(Oc4ccccc4)cc3)c3c(N)ncnc32)C1 [Ibrutinib] (0.1 nM) | 102 | 104 | 104 | 109 | 96.3 | 93.6 | 96.8 | 103 | 102 | 109 | 100 | 99.3 | 97.1 | 102 | 110 | 101 | 97.3 | 101 | 106
C=CC(=O)N1CCC[C@@H](n2nc(-c3ccc(Oc4ccccc4)cc3)c3c(N)ncnc32)C1 [Ibrutinib] (1 nM) | 106 | 99.3 | 102 | 111 | 106 | 98.2 | 98.2 | 105 | 97.8 | 98.1 | 98.3 | 102 | 97.7 | 105 | 107 | 103 | 95.3 | 114 | 108
O=C(Cc1ccc(-c2ccc(OCCN3CCOCC3)cc2)cn1)NCc1ccccc1 [KX2-391] (1 nM) | 101 | 103 | 83.3 | 121 | 105 | 100 | 102 | 102 | 105 | 120 | 95.2 | 107 | 97.2 | 107 | 113 | 105 | 99.4 | 107 | 106
O=C(Cc1ccc(-c2ccc(OCCN3CCOCC3)cc2)cn1)NCc1ccccc1 [KX2-391] (10 nM) | 104 | 103 | 100 | 107 | 104 | 98 | 98 | 94.6 | 102 | 87.6 | 97.3 | 73.2 | 101 | 100 | 101 | 103 | 98.4 | 112 | 106
N#Cc1ccc(C(c2ccc(C#N)cc2)n2cncn2)cc1 [Letrozole] (1 nM) | 97.8 | 105 | 122 | 110 | 97.5 | 94.1 | 104 | 104 | 103 | 106 | 100 | 121 | 95.7 | 98.2 | 113 | 99.8 | 89.2 | 92 | 98.8
CCN(CC)CCCC(C)Nc1c2ccc(Cl)cc2nc2ccc(OC)cc12 (stereo not given) [Mepacrine] (5 nM) | 96.2 | 100 | 95.6 | 107 | 97.5 | 105 | 111 | 100 | 104 | 104 | 93.8 | 97.8 | 107 | 99.8 | 96.9 | 96.1 | 102 | 94.5 | 97.2
CCN(CC)CCCC(C)Nc1c2ccc(Cl)cc2nc2ccc(OC)cc12 (stereo not given) [Mepacrine] (50 nM) | 96.1 | 99.1 | 106 | 92.9 | 98 | 104 | 96.2 | 103 | 104 | 95.3 | 101 | 120 | 98.6 | 94 | 96.1 | 102 | 104 | 96.8 | 98.7
C[C@H]1C[C@@H]2[C@H]([C@@H](O)C[C@@]3(C)[C@H]2CC[C@]3(O)C(=O)CO)[C@@]2(C)C=CC(=O)C=C12 [Methylprednisolone] (1 nM) | 108 | 103 | 113 | 103 | 99.1 | 99.6 | 99.5 | 104 | 100 | 109 | 94.5 | 100 | 103 | 105 | 116 | 110 | 99.3 | 120 | 103
C[C@H]1C[C@@H]2[C@H]([C@@H](O)C[C@@]3(C)[C@H]2CC[C@]3(O)C(=O)CO)[C@@]2(C)C=CC(=O)C=C12 [Methylprednisolone] (10 nM) | 108 | 103 | 93.7 | 113 | 104 | 96.8 | 110 | 99.8 | 101 | 109 | 112 | 116 | 96.2 | 135 | 108 | 127 | 101 | 111 | 112
O=C(O)C(=O)O.[NH-][C@@H]1CCCC[C@H]1[NH-].[Pt+2] [Oxaliplatin] (1 nM) | 91.7 | 98.9 | 95 | 96.6 | 93.2 | 98.2 | 106 | 86.7 | 103 | 90 | 91.3 | 110 | 98.5 | 94.2 | 86.8 | 91.9 | 93.9 | 91.3 | 91.2
O=C(O)C(=O)O.[NH-][C@@H]1CCCC[C@H]1[NH-].[Pt+2] [Oxaliplatin] (10 nM) | 90.9 | 101 | 95 | 91 | 94 | 99.8 | 104 | 97.2 | 96.8 | 98.4 | 98.7 | 124 | 101 | 92.7 | 81.9 | 101 | 94.8 | 83.7 | 92
C=CCc1cccc(/C=N/NC(=O)CN2CCN(Cc3ccccc3)CC2)c1O [PAC-1] (1 nM) | 100 | 104 | 101 | 113 | 101 | 105 | 97.5 | 109 | 105 | 109 | 99.7 | 129 | 96.8 | 103 | 103 | 97.7 | 106 | 96 | 102
